The NIST ThermoML archive (doi:10.1016/j.jct.2019.05.002)
± gives the expanded uncertainty stated by the source.

Columns and labels:
[1] = xn = mol fraction of the nth substance listed; conditions: 100 kPa, Liquid, x1 = 1; for speed of sound: Frequency=3 MHz, Single path-length method; for mass density: Vibrating tube method
[2] = 100 kPa, Liquid; for speed of sound: Frequency=3 MHz, Single path-length method; for mass density: Vibrating tube method

`CCCC(=O)OCC` [ethyl butanoate] + OCCCCO gave a speed of sound ([1]; 298.15 K) of 1171.8 ± 1 m/s, a mass density ([1]; 298.15 K) of 874.31 ± 2 kg/m3 and a speed of sound ([1]; 303.15 K) of 1151.1 ± 1 m/s. It also gave a mass density ([1]; 303.15 K) of 868.85 ± 2 kg/m3, a speed of sound ([1]; 308.15 K) of 1130.2 ± 1 m/s and a mass density ([1]; 308.15 K) of 863.4 ± 2 kg/m3. It also gave a speed of sound ([1]; 313.15 K) of 1109 ± 1 m/s, a mass density ([1]; 313.15 K) of 857.94 ± 2 kg/m3 and a speed of sound ([1]; 318.15 K) of 1088 ± 1 m/s. The mass density ([1]; 318.15 K) was 852.49 ± 2 kg/m3, the speed of sound ([1]; 323.15 K) was 1067.1 ± 1 m/s and the mass density ([1]; 323.15 K) was 847.03 ± 2 kg/m3.
`CCCC(=O)OCC` [ethyl butanoate] + CCC(O)CO showed a speed of sound ([1]; 298.15 K) of 1171.8 ± 1 m/s, a mass density ([1]; 298.15 K) of 874.31 ± 2 kg/m3 and a speed of sound ([1]; 303.15 K) of 1151.1 ± 1 m/s. For the same compound, the mass density ([1]; 303.15 K) was 868.85 ± 2 kg/m3, the speed of sound ([1]; 308.15 K) was 1130.2 ± 1 m/s and the mass density ([1]; 308.15 K) was 863.4 ± 2 kg/m3. The speed of sound ([1]; 313.15 K) was 1109 ± 1 m/s, the mass density ([1]; 313.15 K) was 857.94 ± 2 kg/m3 and the speed of sound ([1]; 318.15 K) was 1088 ± 1 m/s. The mass density ([1]; 318.15 K) was 852.49 ± 2 kg/m3, the speed of sound ([1]; 323.15 K) was 1067.1 ± 1 m/s and the mass density ([1]; 323.15 K) was 847.03 ± 2 kg/m3.
Compound `CC(O)CCO` (centres undefined) [1,3-butanediol] has a speed of sound ([2]; 298.15 K) of 1527.9 ± 1.4 m/s, a mass density ([2]; 298.15 K) of 1001.87 ± 2 kg/m3 and a speed of sound ([2]; 303.15 K) of 1514 ± 1.4 m/s. It also gave a mass density ([2]; 303.15 K) of 998.41 ± 2 kg/m3, a speed of sound ([2]; 308.15 K) of 1500.1 ± 1.4 m/s and a mass density ([2]; 308.15 K) of 994.94 ± 2 kg/m3. The speed of sound ([2]; 313.15 K) was 1486.2 ± 1.4 m/s, the mass density ([2]; 313.15 K) was 991.49 ± 2 kg/m3 and the speed of sound ([2]; 318.15 K) was 1472.3 ± 1.4 m/s. It also gave a mass density ([2]; 318.15 K) of 988.02 ± 2 kg/m3, a speed of sound ([2]; 323.15 K) of 1458.4 ± 1.4 m/s and a mass density ([2]; 323.15 K) of 984.56 ± 2 kg/m3.
With `CCCC(=O)OCC` [ethyl butanoate] the speed of sound ([2]; 298.15 K) was 1171.8 ± 1 m/s, the mass density ([2]; 298.15 K) was 874.31 ± 2 kg/m3 and the speed of sound ([2]; 303.15 K) was 1151.1 ± 1 m/s. For the same compound, the mass density ([2]; 303.15 K) was 868.85 ± 2 kg/m3, the speed of sound ([2]; 308.15 K) was 1130.2 ± 1 m/s and the mass density ([2]; 308.15 K) was 863.4 ± 2 kg/m3. For the same compound, the speed of sound ([2]; 313.15 K) was 1109 ± 1 m/s, the mass density ([2]; 313.15 K) was 857.94 ± 2 kg/m3 and the speed of sound ([2]; 318.15 K) was 1088 ± 1 m/s. It also gave a mass density ([2]; 318.15 K) of 852.49 ± 2 kg/m3, a speed of sound ([2]; 323.15 K) of 1067.1 ± 1 m/s and a mass density ([2]; 323.15 K) of 847.03 ± 2 kg/m3.
Compound `CCCC(=O)OCC` [ethyl butanoate] + CC(O)CCO has a speed of sound ([1]; 298.15 K) of 1171.8 ± 1 m/s, a mass density ([1]; 298.15 K) of 874.31 ± 2 kg/m3 and a speed of sound ([1]; 303.15 K) of 1151.1 ± 1 m/s. The mass density ([1]; 303.15 K) was 868.85 ± 2 kg/m3, the speed of sound ([1]; 308.15 K) was 1130.2 ± 1 m/s and the mass density ([1]; 308.15 K) was 863.4 ± 2 kg/m3. The speed of sound ([1]; 313.15 K) was 1109 ± 1 m/s, the mass density ([1]; 313.15 K) was 857.94 ± 2 kg/m3 and the speed of sound ([1]; 318.15 K) was 1088 ± 1 m/s. It also gave a mass density ([1]; 318.15 K) of 852.49 ± 2 kg/m3, a speed of sound ([1]; 323.15 K) of 1067.1 ± 1 m/s and a mass density ([1]; 323.15 K) of 847.03 ± 2 kg/m3.
For `CCC(O)CO` (centres undefined) [1,2-butanediol], the speed of sound ([2]; 298.15 K) was 1452.5 ± 1.4 m/s, the mass density ([2]; 298.15 K) was 998.56 ± 2 kg/m3 and the speed of sound ([2]; 303.15 K) was 1437.9 ± 1.4 m/s. The mass density ([2]; 303.15 K) was 994.75 ± 2 kg/m3, the speed of sound ([2]; 308.15 K) was 1423.3 ± 1.4 m/s and the mass density ([2]; 308.15 K) was 990.92 ± 2 kg/m3. It also gave a speed of sound ([2]; 313.15 K) of 1408.7 ± 1.4 m/s, a mass density ([2]; 313.15 K) of 987.11 ± 2 kg/m3 and a speed of sound ([2]; 318.15 K) of 1394.1 ± 1.4 m/s. It also gave a mass density ([2]; 318.15 K) of 983.28 ± 2 kg/m3, a speed of sound ([2]; 323.15 K) of 1379.5 ± 1.4 m/s and a mass density ([2]; 323.15 K) of 979.46 ± 2 kg/m3.
With `OCCCCO` [1,4-butanediol] the speed of sound ([2]; 298.15 K) was 1601.9 ± 1.1 m/s, the mass density ([2]; 298.15 K) was 1012.8 ± 2 kg/m3 and the speed of sound ([2]; 303.15 K) was 1590.3 ± 1.1 m/s. The mass density ([2]; 303.15 K) was 1009.77 ± 2 kg/m3, the speed of sound ([2]; 308.15 K) was 1578.6 ± 1.1 m/s and the mass density ([2]; 308.15 K) was 1006.74 ± 2 kg/m3. For the same compound, the speed of sound ([2]; 313.15 K) was 1567 ± 1.1 m/s, the mass density ([2]; 313.15 K) was 1003.7 ± 2 kg/m3 and the speed of sound ([2]; 318.15 K) was 1555.3 ± 1.1 m/s. For the same compound, the mass density ([2]; 318.15 K) was 1000.67 ± 2 kg/m3, the speed of sound ([2]; 323.15 K) was 1543.7 ± 1.1 m/s and the mass density ([2]; 323.15 K) was 997.63 ± 2 kg/m3.
